The structures appear in SMILES notation.

In experiment [1] the target is T1, Methylated-DNA--protein-cysteine methyltransferase (Homo sapiens) (UniProt P16455).
T1 sequence (whole entry): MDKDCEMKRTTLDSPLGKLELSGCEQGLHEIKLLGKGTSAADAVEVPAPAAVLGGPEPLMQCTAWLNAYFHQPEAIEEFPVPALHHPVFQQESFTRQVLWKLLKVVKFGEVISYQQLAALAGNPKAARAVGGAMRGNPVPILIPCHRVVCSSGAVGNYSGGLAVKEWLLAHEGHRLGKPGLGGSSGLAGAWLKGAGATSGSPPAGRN
The experiment is described as follows: In vitro inhibitory activity of compound against AGT (O6-alkylguanine-DNA alkyltransferase) at a concentration of 10 uM using breast cancer MCF cells, expressed as Fmol O6-MeG removed/mg of protein. It is filed as cell-based.

Experiment [2] concerns the target T1, Methylated-DNA--protein-cysteine methyltransferase (Homo sapiens). The experiment in a line: In vitro inhibitory activity of compound against AGT (O6-alkylguanine-DNA alkyltransferase) at a concentration of 50 uM using breast cancer MCF cells, expressed as Fmol O6-MeG removed/mg of protein. It is filed as cell-based.
Experiment [3] shares this target. The experiment is described as follows: In vitro inhibitory activity of compound against AGT (O6-alkylguanine-DNA alkyltransferase) at a concentration of 1 uM using breast cancer MCF cells, expressed as Fmol O6-MeG removed/mg of protein. It is filed as cell-based.
Experiment [4] shares this target. The experiment is described as follows: In vitro inhibitory activity of compound against AGT (O6-alkylguanine-DNA alkyltransferase) at a concentration of 0.1 uM using breast cancer MCF cells, expressed as Fmol O6-MeG removed/mg of protein. It is filed as cell-based.
Experiment [5] has the same target. The following applies: MCF7; 0.1 uM.
Description: In vitro inhibitory activity of compound against AGT (O6-alkylguanine-DNA alkyltransferase) at a concentration of 0.1 uM using breast cancer MCF-7 cells, expressed as Fmol O6-MeG removed/mg of protein
Experiment [6] shares this target. The following applies: MCF7; 1 uM.
Description: In vitro inhibitory activity of compound against AGT (O6-alkylguanine-DNA alkyltransferase) at a concentration of 1 uM using breast cancer MCF-7 cells, expressed as Fmol O6-MeG removed/mg of protein
Experiment [7] shares this target. The following applies: MCF7; 50 uM.
Description: In vitro inhibitory activity of compound against AGT (O6-alkylguanine-DNA alkyltransferase) at a concentration of 50 uM using breast cancer MCF-7 cells, expressed as Fmol O6-MeG removed/mg of protein
Experiment [8] shares this target. As to conditions: MCF7; 10 uM.
Description: In vitro inhibitory activity of compound against AGT (O6-alkylguanine-DNA alkyltransferase) at a concentration of 10 uM using breast cancer MCF-7 cells, expressed as Fmol O6-MeG removed/mg of protein

On to `COCc1ccc(COc2[nH]c(N)nc3ncnc2-3)cc1`, for which the Activity ((fM of O6-MeG removed) (mg of protein)-1) in experiment [1] was determined as 35; in experiment [2] it was 58; in experiment [3], 292; in experiment [4] it was 457.

For `COCc1ccccc1COc1[nH]c(N)nc2ncnc1-2`, the Activity ((fM of O6-MeG removed) (mg of protein)-1) in experiment [1] came to 2490; in experiment [2], 660; in experiment [3], 2300; in experiment [4] it was 2340.

In the case of `Nc1nc(OCc2ccccc2)c2nc[nH]c2n1`, the Activity ((fM of O6-MeG removed) (mg of protein)-1) in experiment [5] turned out to be 2390; in experiment [6] it was 164; in experiment [7] it was 19; in experiment [8], 50.

For the molecule `COCc1cccc(COc2[nH]c(N)nc3ncnc2-3)c1`, the Activity ((fM of O6-MeG removed) (mg of protein)-1) came to 21 in experiment [1], 15 in experiment [2], 1140 in experiment [3] and 1640 in experiment [4].

The values are drawn from ChEMBL document CHEMBL1136584, “Synthesis and preliminary biological evaluation of 6-O-[11C]-[(methoxymethyl)benzyl]guanines, new potential PET breast cancer imaging agents for the DNA repair protein AGT” (Bioorg Med Chem Lett, 2003).
